Legend:
BV2 microglia cells [1] = experiment: Proinflammatory cytokine protein expression under hypoxia; type: cell-based, mouse; conditions: 2-DG, BV 2 cells under hypoxia
Description: b) Protein extraction and proinflammatory cytokine protein expression assay: After incubated in 35 mm culture dishes and placed for 24 hours, the cells were subject to hypoxia treatment for indicated time. The total cellular protein was then extracted to detect protein expression of the proinflammatory cytokines TNF-α, IL-1β and IL-6.

BV2 microglia cells [2] = experiment: Hypoxia-induced microglial activation (morphological changes) in BV2 cells; type: cell-based, mouse
Description: a) Cell culture: BV2 cells were grown in DMEM containing 10% fetal bovine serum (FBS), placed in 5% CO2, cultured in a 37° C. constant temperature incubator (relative humidity was 95%), and observed under inverted microscope. Passage was performed approximately 2-3 days, and logarithmic growth phase cells were used for formal experiments. The cells in the hypoxic treatment group were placed in the Coy anoxic chamber with 1% 02, 5% CO2, and 94% N2; other conditions were the same as normal culture conditions.
(§1) b) RNA interference: Cells were seeded in a 35 mm culture dish for 24 hours. Short-interfering RNAs (siRNAs) were transfected with RNAiMAX Reagent. Scrambled RNA was used as a control. In total, 50 nM siRNAs were transfected into the cultures, and after 12 hours, the medium was replaced with fresh medium. Cells were then stimulated with hypoxia for 24 hours to detect the expression level of the indicated proteins.
a) Cell culture: BV2 cells were grown in DMEM containing 10% fetal bovine serum (FBS), placed in 5% CO2, cultured in a 37° C. constant temperature incubator (relative humidity was 95%), and observed under inverted microscope. Passage was performed approximately 2-3 days, and logarithmic growth phase cells were used for formal experiments.

BV 2 cells [3] = experiment: Metabolite profiling: acetyl-coenzyme A accumulation under hypoxia; type: cell-based, mouse; conditions: lonidamine 50 μM, BrPA 10 μM; hypoxia 6 hours
Description: c) Metabolite profiling: BV2 cells were seeded in a 60 mm culture dish and cultured for 24 hours and then cultured in normoxic or hypoxic conditions for 6 hours. Metabolites were extracted using 1.5 mL of ice-cold 80% methanol. After incubation at −80° C. for 30 minutes, cells were scrapped and centrifuged at 14,000 g for 15 min at 4° C. The upper methanol/water phase were transferred into new tubes and incubated at −80° C. for another 30 minutes. The upper phases were centrifuged and dried under nitrogen gas and dried samples were stored at −80° C. prior to LC-MS analysis.

BV 2 cells [4] = experiment: qRT-PCR of proinflammatory cytokine mRNA under hypoxia; type: cell-based, mouse; conditions: lonidamine 50 μM, 3-BrPA 10 μM; for 116 expression (mRNA) / Tnfa expression (mRNA): hypoxia
Description: Next, quantitative reverse transcription polymerase chain reaction assays were performed to examine the mRNA levels of several proinflammatory cytokines in the presence or absence of HK2 inhibitors. […] Chromatin immunoprecipitation assays were carried out to examine endogenous binding of acetylated histones to I11b promoter. The binding of AcH3 and AcH4 to the I11b promoter increased during hypoxia, whereas it could be decreased by pretreatment with lonidamine (FIG. 7F).

[5] = system: middle cerebral artery occlusion (MCAo) rats; experiment: Rat MCAo model, infarct volume by TTC staining; type: in vivo; conditions: 10 mg/kg two hours after operation; measured 24 hours after reperfusion
primary microglia (pMG) [6] = experiment: CD 11b expression in hypoxia-stimulated primary microglia; type: cell-based, mouse; conditions: lonidamine 50 μM, DMSO as solvent
Description: For the isolation and culture of primary microglia, cells were isolated from newborn C57BL/6J mice. Briefly, cerebral cortices devoid of meninges and blood vessels were dissociated from P0-2 mice and digested by 0.125% trypsin at 37° C. for 15 minutes. The digestion was terminated by addition of DMEM containing 10% FBS and isolated single cells were seeded in culture dishes. After the mixed cultures became confluent, microglia were separated from other cell types by slight shaking and purification was identified by the microglial-specific marker CD 11b. b) CD 11b expression detected by Immunofluorescence: BV2 cells were seeded in a laser confocal-specific culture plate, and treated with hypoxia for 24 hours, fixed in 4% paraformaldehyde at room temperature for 20 minutes, and then washed three times with PBST for 5 minutes each time. After washing, CD 11b antibody diluted with DAKO antibody dilution was added and incubated overnight at 4° C. The next day, the samples were incubated with indicated fluorescently labeled secondary antibody at 37° C. for 1 hour.

I11b promoter = experiment: Chromatin immunoprecipitation (ChIP): acetylated histones at I11b promoter; type: cell-based, mouse; conditions: pretreatment 1 hour prior to 6 hours hypoxic exposure
Description: d) Chromatin immunoprecipitation (ChIP) assay: BV 2 cells were treated with dimethylsulfoxide or lonidamine for 1 hour prior to 6 hours hypoxic exposure. Then, cells were cross-linked with a 1% formaldehyde solution (Sigma, F8775) for 10 minutes at 37° C. Cell lysates were sonicated to generate 100-1000 bp DNA fragments. Samples were diluted, and 10% of the total amount was retained for input. The remaining portions of each sample were pre-cleared, and anti-H3 or anti-H4 antibodies were added; a normal rabbit IgG antibody was simultaneously used as the negative control. The next day, protein G agarose was added and samples were washed after 2 hours of incubation. Cross-links were then reversed by incubation at 65° C. for 4 hours in 0.2 M NaCl. DNAs were extracted from the input and IP samples, and qPCR assays were performed. The […] promoter primer sequences were as follows: [NT] (forward) (SEQ ID NO. 19) and [NT] (reverse) (SEQ ID NO. 20).

BV2 microglia cells [7] = experiment: CD 11b expression in hypoxia-stimulated BV2 cells; type: cell-based, mouse; conditions: lonidamine 50 μM, DMSO as solvent
Description: (§2) c) CD 11b expression detected by Immunofluorescence: BV2 cells were seeded in a laser confocal-specific culture plate, and treated with hypoxia for 24 hours, fixed in 4% paraformaldehyde at room temperature for 20 minutes, and then washed three times with PBST for 5 minutes each time. After washing, CD 11b antibody diluted with DAKO antibody dilution was added and incubated overnight at 4° C. The next day, the samples were incubated with indicated fluorescently labeled secondary antibody at 37° C. for 1 hour.
as §1
as §2, with “b)” for “c)”, “The next day, the samples were incubated with indicated fluorescently labeled secondary antibody at 37° C. for 1 hour.” left out

primary microglia (pMG) [8] = experiment: Hypoxia-induced microglial activation (morphological changes) in primary microglia; type: cell-based, mouse; conditions: lonidamine 50 μM
Description: For the isolation and culture of primary microglia, cells were isolated from newborn C57BL/6J mice. Briefly, cerebral cortices devoid of meninges and blood vessels were dissociated from P0-2 mice and digested by 0.125% trypsin at 37° C. for 15 minutes. The digestion was terminated by addition of DMEM containing 10% FBS and isolated single cells were seeded in culture dishes. After the mixed cultures became confluent, microglia were separated from other cell types by slight shaking and purification was identified by the microglial-specific marker CD 11b.

binding of AcH3 to the I11b promoter during hypoxia (I11b promoter) | binding of AcH4 to the I11b promoter during hypoxia (I11b promoter) | SMILES | production of proinflammation cytokines (BV2 microglia cells [1]) | percentage of BV 2 cells with activated morphological changes (BV2 microglia cells [2]; 500 μM 2-DG, hypoxia 1% oxygen) | hypoxia-induced accumulation of acetyl-coenzyme A (BV 2 cells [3]) | hypoxia-induced I11b expression at the mRNA level (BV 2 cells [4]) | 116 expression (mRNA) (BV 2 cells [4]) | Tnfa expression (mRNA) (BV 2 cells [4]) | infarct size [5] | CD 11b expression, pMG cells (immunofluorescence) (primary microglia (pMG) [6]) | CD 11b expression, BV 2 cells (immunofluorescence) (BV2 microglia cells [7]) | activated state of BV 2 cultures during hypoxia (BV2 microglia cells [2]; lonidamine 50 μM) | activated state of pMG cultures during hypoxia (primary microglia (pMG) [8])
– | – | O=CC[C@@H](O)[C@H](O)[C@H](O)CO [2-deoxyglucose, 2-deoxy-D-glucose] | significantly impaired | significantly decreased | – | – | – | – | – | – | – | – | –
– | – | O=C(O)C(=O)CBr [3-Br-pyruvate, 3-bromopyruvate] | – | – | remarkably impaired | dramatically inhibited | no effect | no effect | – | – | – | – | –
decreased | decreased | O=C(O)c1nn(Cc2ccc(Cl)cc2Cl)c2ccccc12 [Lonidamine] | – | – | remarkably impaired | dramatically inhibited | no effect | no effect | significantly reduced | reduction | reduction | markedly inhibited | markedly inhibited
